Results reported in patent publication US10738030B2, “Modulators of cystic fibrosis transmembrane conductance regulator” (Vertex Pharmaceuticals Incorporated, priority 2016, dated 2020).

Target: T1, F508del (Homo sapiens, UniProt P13569, DEL508-508)
T1 construct: expressed in transfected cells
Experiment: Membrane potential optical assay (FRET voltage-sensor dyes), identification of correction compounds
Format: cell-based
Conditions: NIH3T3 cells stably expressing F508del, procedures described above; for Emax: maximum efficacy, read-out: Max Efficacy; for EC50: modulation of CFTR activity
Description: (§1) NIH3T3 mouse fibroblasts stably expressing F508del are used for optical measurements of membrane potential. The cells are maintained at 37° C. in 5% CO2 and 90% humidity in Dulbecco's modified Eagle's medium supplemented with 2 mM glutamine, 10% fetal bovine serum, 1×NEAA, β-ME, 1× pen/strep, and 25 mM HEPES in 175 cm^2 culture flasks. For all optical assays, the cells were seeded at 12,000 cells/well in 384-well matrigel-coated plates and cultured for 18-24 hrs at 37° C. for the potentiator assay. For the correction assays, the cells are cultured at 37° C. with and without compounds for 18-24 hours.
Membrane potential optical methods for assaying F508del modulation properties of compounds.
The optical membrane potential assay utilized voltage-sensitive FRET sensors described by Gonzalez and Tsien (See Gonzalez, J. E. and R. Y. Tsien (1995) “Voltage sensing by fluorescence resonance energy transfer in single cells” Biophys J 69(4): 1272-80, and Gonzalez, J. E. and R. Y. Tsien (1997) “Improved indicators of cell membrane potential that use fluorescence resonance energy transfer” Chem Biol 4(4): 269-77) in combination with instrumentation for measuring fluorescence changes such as the Voltage/Ion Probe Reader (VIPR) (See, Gonzalez, J. E., K. Oades, et al. (1999) “Cell-based assays and instrumentation for screening ion-channel targets” Drug Discov Today 4(9): 431-439).
These voltage sensitive assays are based on the change in fluorescence resonant energy transfer (FRET) between the membrane-soluble, voltage-sensitive dye, DiSBAC2(3), and a fluorescent phospholipid, CC2-DMPE, which is attached to the outer leaflet of the plasma membrane and acts as a FRET donor. Changes in membrane potential (Vm) cause the negatively charged DiSBAC2(3) to redistribute across the plasma membrane and the amount of energy transfer from CC2-DMPE changes accordingly. The changes in fluorescence emission were monitored using VIPR™ II, which is an integrated liquid handler and fluorescent detector designed to conduct cell-based screens in 96- or 384-well microtiter plates.
To identify small molecules that correct the trafficking defect associated with F508del; a single-addition HTS assay format was developed. The cells were incubated in serum-free medium for 16 hrs at 37° C. in the presence or absence (negative control) of test compound. As a positive control, cells plated in 384-well plates were incubated for 16 hrs at 27° C. to “temperature-correct” F508del. The cells were subsequently rinsed 3× with Krebs Ringers solution and loaded with the voltage-sensitive dyes. To activate F508del, 10 μM forskolin and the CFTR potentiator, genistein (20 μM), were added along with Cl^−-free medium to each well. The addition of Cl^−-free medium promoted Cl^− efflux in response to F508del activation and the resulting membrane depolarization was optically monitored using the FRET-based voltage-sensor dyes.
• Bath Solution #1: (in mM) NaCl 160, KCl 4.5, CaCl2 2, MgCl2 1, HEPES 10, pH 7.4 with NaOH. • Chloride-free bath solution: Chloride salts in Bath Solution #1 (above) are substituted with gluconate salts. • CC2-DMPE: Prepared as a 10 mM stock solution in DMSO and stored at −20° C. • DiSBAC2(3): Prepared as a 10 mM stock in DMSO and stored at −20° C. Cell Culture
as §1, with “seeded at 30,000/well in 384-well” for “seeded at 12,000 cells/well in 384-well”, “cultured for 2 hrs at” for “cultured for 18-24 hrs at”, “37° C. before culturing at 27° C. for 24 hrs for the” for “37° C. for the”, “cultured at 27° C. or 37° C.” for “cultured at 37° C.”, “compounds for 16-24 hours.” for “compounds for 18-24 hours.”

T1 sequence (P13569 with tags, fused parts or gaps DEL508-508): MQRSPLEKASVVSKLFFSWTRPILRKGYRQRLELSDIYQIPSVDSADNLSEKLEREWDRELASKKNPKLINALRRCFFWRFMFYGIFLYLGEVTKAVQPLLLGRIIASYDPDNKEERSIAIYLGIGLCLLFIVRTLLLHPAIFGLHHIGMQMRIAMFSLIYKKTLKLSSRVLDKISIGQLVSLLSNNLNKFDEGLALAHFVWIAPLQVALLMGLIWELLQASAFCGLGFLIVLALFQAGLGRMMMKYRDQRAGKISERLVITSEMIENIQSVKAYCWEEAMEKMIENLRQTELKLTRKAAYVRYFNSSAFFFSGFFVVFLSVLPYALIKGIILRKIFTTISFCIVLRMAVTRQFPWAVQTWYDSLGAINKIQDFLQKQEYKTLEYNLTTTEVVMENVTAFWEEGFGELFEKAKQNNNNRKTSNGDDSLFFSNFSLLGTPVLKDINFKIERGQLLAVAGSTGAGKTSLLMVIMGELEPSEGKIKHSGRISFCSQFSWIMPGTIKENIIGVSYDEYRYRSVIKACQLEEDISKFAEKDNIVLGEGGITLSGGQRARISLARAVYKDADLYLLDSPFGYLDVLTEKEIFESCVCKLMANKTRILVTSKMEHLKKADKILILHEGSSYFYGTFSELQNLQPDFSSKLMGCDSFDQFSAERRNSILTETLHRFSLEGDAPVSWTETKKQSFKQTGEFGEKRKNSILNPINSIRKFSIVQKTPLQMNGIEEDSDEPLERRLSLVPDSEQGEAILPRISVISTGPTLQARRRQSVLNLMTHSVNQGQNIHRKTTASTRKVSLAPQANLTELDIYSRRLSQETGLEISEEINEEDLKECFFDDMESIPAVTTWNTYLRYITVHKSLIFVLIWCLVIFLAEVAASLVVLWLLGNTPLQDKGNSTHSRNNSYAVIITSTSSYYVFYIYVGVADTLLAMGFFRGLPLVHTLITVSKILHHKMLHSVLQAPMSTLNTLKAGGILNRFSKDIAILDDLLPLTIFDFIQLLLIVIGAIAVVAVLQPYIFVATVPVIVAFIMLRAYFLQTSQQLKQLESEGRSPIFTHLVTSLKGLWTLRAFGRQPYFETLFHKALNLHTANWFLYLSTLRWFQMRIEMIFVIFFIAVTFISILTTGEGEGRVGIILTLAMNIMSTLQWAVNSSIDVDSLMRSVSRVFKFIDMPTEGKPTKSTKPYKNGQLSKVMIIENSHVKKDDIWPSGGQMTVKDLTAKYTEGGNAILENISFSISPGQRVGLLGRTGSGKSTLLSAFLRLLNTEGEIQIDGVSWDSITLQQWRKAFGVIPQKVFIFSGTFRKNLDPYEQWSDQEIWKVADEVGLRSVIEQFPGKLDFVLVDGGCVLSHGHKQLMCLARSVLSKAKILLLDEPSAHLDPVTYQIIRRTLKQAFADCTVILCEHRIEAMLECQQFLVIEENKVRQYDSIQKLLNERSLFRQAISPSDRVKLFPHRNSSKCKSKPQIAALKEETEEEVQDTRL

SMILES | Emax [%] | EC50 [µM]
CC(C)COc1cc(F)cc(-c2ccc(C(=O)NS(=O)(=O)c3cccc(N)n3)c(OCCOC(C)C)n2)c1 [Compound 55, N-[(6-amino-2-pyridyl)sulfonyl]-6-(3-fluoro-5-isobutoxy-phenyl)-2-(2-isopropoxyethoxy)pyridine-3-carboxamide] | 30 to 80 | < 3
CC(C)COc1cc(F)cc(-c2ccc(C(=O)NS(=O)(=O)c3cccc(N)n3)c(OC(C)CC(C)(C)C)n2)c1 (centres unmarked) [Compound 36, N-[(6-amino-2-pyridyl)sulfonyl]-6-(3-fluoro-5-isobutoxy-phenyl)-2-(1,3,3-trimethylbutoxy)pyridine-3-carboxamide] | 30 to 80 | < 3
CC(C)(C)COc1nc(C(C)(C)C)ccc1C(=O)NS(=O)(=O)c1cccc(N)n1 [Compound 15, N-[(6-amino-2-pyridyl)sulfonyl]-6-tert-butyl-2-(2,2-dimethylpropoxy)pyridine-3-carboxamide] | 30 to 80 | < 3
CC(C)COc1cc(F)cc(-c2ccc(C(=O)NS(=O)(=O)c3cccc(N)n3)c(N(C)CC(C)C)n2)c1 [Compound 61, N-[(6-amino-2-pyridyl)sulfonyl]-6-(3-fluoro-5-isobutoxy-phenyl)-2-[isobutyl(methyl)amino]pyridine-3-carboxamide] | > 80 | < 3
CC(C)COc1cc(F)cc(-c2ccc(C(=O)NS(=O)(=O)c3cccc(N)n3)c(OC(C)CC(C)C)n2)c1 (centres unmarked) [Compound 24, N-[(6-amino-2-pyridyl)sulfonyl]-2-(1,3-dimethylbutoxy)-6-(3-fluoro-5-isobutoxy-phenyl)pyridine-3-carboxamide] | > 80 | < 3
CC(C)COc1cc(F)cc(-c2ccc(C(=O)NS(=O)(=O)c3cccc(N)n3)c3nc(C(F)(F)F)cn23)c1 [Compound 7, N-[(6-amino-2-pyridyl)sulfonyl]-5-(3-fluoro-5-isobutoxy-phenyl)-2-(trifluoromethyl)imidazo[1,2-a]pyridine-8-carboxamide] | 30 to 80 | < 3
CC(C)COc1cc(F)cc(-c2ccc(C(=O)NS(=O)(=O)c3cccc(N)n3)c(OCC(C)(C)C)n2)c1 [Compound 32, N-[(6-amino-2-pyridyl)sulfonyl]-2-(2,2-dimethylpropoxy)-6-(3-fluoro-5-isobutoxy-phenyl)pyridine-3-carboxamide] | > 80 | < 3
CC(C)COc1cc(F)cc(-c2ccc(C(=O)NS(=O)(=O)c3cccc(N)n3)c(C(C)C(C)C)n2)c1 (centres unmarked) [Compound 76, N-[(6-amino-2-pyridyl)sulfonyl]-2-(1,2-dimethylpropyl)-6-(3-fluoro-5-isobutoxy-phenyl)pyridine-3-carboxamide] | 30 to 80 | < 3
CCN(c1nc(-c2ccc(OC(C)C)nc2)ccc1C(=O)NS(=O)(=O)c1cccc(N)n1)C(C)C [Compound 14, N-[(6-amino-2-pyridyl)sulfonyl]-2-[ethyl(isopropyl)amino]-6-(6-isopropoxy-3-pyridyl)pyridine-3-carboxamide] | 30 to 80 | < 3
CC(C)Oc1nc(C(C)(C)C)ccc1C(=O)NS(=O)(=O)c1cccc(N)n1 [Compound 45, N-[(6-amino-2-pyridyl)sulfonyl]-6-tert-butyl-2-isopropoxy-pyridine-3-carboxamide] | 30 to 80 | 3 to 10
COC[C@@H](C)Oc1nc(-c2cc(F)cc(OCC(C)C)c2)ccc1C(=O)NS(=O)(=O)c1cccc(N)n1 [Compound 65, N-[(6-amino-2-pyridyl)sulfonyl]-6-(3-fluoro-5-isobutoxy-phenyl)-2-[(1R)-2-methoxy-1-methyl-ethoxy]pyridine-3-carboxamide] | 30 to 80 | < 3
CCN(c1nc(-c2cc(F)cc(OCC(C)C)c2)ccc1C(=O)NS(=O)(=O)c1cccc(N)n1)C(C)C [Compound 74, N-[(6-amino-2-pyridyl)sulfonyl]-2-[ethyl(isopropyl)amino]-6-(3-fluoro-5-isobutoxy-phenyl)pyridine-3-carboxamide] | > 80 | < 3
CCOCCOc1nc(-c2cc(F)cc(OCC(C)C)c2)ccc1C(=O)NS(=O)(=O)c1cccc(N)n1 [Compound 13, N-[(6-amino-2-pyridyl)sulfonyl]-2-(2-ethoxyethoxy)-6-(3-fluoro-5-isobutoxy-phenyl)pyridine-3-carboxamide] | 30 to 80 | < 3
CC(C)COc1cc(F)cc(-c2ccc(C(=O)NS(=O)(=O)c3cccc(N)n3)c(NC(C)(C)C)n2)c1 [Compound 58, N-[(6-amino-2-pyridyl)sulfonyl]-2-(tert-butylamino)-6-(3-fluoro-5-isobutoxy-phenyl)pyridine-3-carboxamide] | > 80 | < 3
CC(C)COc1cc(F)cc(-c2ccc(C(=O)NS(=O)(=O)c3cccc(N)n3)c(OCCC(F)(F)F)n2)c1 [Compound 81, N-[(6-amino-2-pyridyl)sulfonyl]-6-(3-fluoro-5-isobutoxy-phenyl)-2-(3,3,3-trifluoropropoxy)pyridine-3-carboxamide] | 30 to 80 | < 3
COc1nc(-c2cc(F)cc(OCC(C)C)c2)ccc1C(=O)NS(=O)(=O)c1cccc(N)n1 [Compound 10, N-[(6-amino-2-pyridyl)sulfonyl]-6-(3-fluoro-5-isobutoxy-phenyl)-2-methoxy-pyridine-3-carboxamide] | 30 to 80 | < 3
CC(C)COc1cc(F)cc(-c2ccc(C(=O)NS(=O)(=O)c3cccc(N)n3)c(OCC(C)(F)F)n2)c1 [Compound 57, N-[(6-amino-2-pyridyl)sulfonyl]-2-(2,2-difluoropropoxy)-6-(3-fluoro-5-isobutoxy-phenyl)pyridine-3-carboxamide] | 30 to 80 | < 3
CCC(Oc1nc(-c2cc(F)cc(OCC(C)C)c2)ccc1C(=O)NS(=O)(=O)c1cccc(N)n1)C(C)(C)C (centres unmarked) [Compound 34] | > 80 | < 3
CC(C)COc1cc(F)cc(-c2ccc(C(=O)NS(=O)(=O)c3ccccc3)c(N(C)CCCC(=O)O)n2)c1 [Compound 86, 4-[[3-(benzenesulfonylcarbamoyl)-6-(3-fluoro-5-isobutoxy-phenyl)-2-pyridyl]-methyl-amino]butanoic Acid] | ≤ 30 | > 10
COCCOc1nc(-c2cc(F)cc(OCC(C)C)c2)ccc1C(=O)NS(=O)(=O)c1cccc(N)n1 [Compound 60, N-[(6-amino-2-pyridyl)sulfonyl]-6-(3-fluoro-5-isobutoxy-phenyl)-2-(2-methoxyethoxy)pyridine-3-carboxamide] | 30 to 80 | < 3
C/C=C/COc1nc(-c2cc(F)cc(OCC(C)C)c2)ccc1C(=O)NS(=O)(=O)c1cccc(N)n1 [Compound 28, N-[(6-amino-2-pyridyl)sulfonyl]-2-[(E)-but-2-enoxy]-6-(3-fluoro-5-isobutoxy-phenyl)pyridine-3-carboxamide] | 30 to 80 | < 3
CC(C)COc1cc(F)cc(-c2ccc(C(=O)NS(=O)(=O)c3cccc(N)n3)c(N(C)CC(F)F)n2)c1 [Compound 1, N-[(6-amino-2-pyridyl)sulfonyl]-2-[2,2-difluoroethyl(methyl)amino]-6-(3-fluoro-5-isobutoxy-phenyl)pyridine-3-carboxamide] | > 80 | < 3
